Tests used:
Assay type in all cases: cell-based, human
[1] = system: SC-β cells; assay: Insulin secretion of plated SC-β cells treated with anti-diabetic drugs in 2 and 20 mM glucose; settings: SC-β cells treated with drug; trend
Method: FIG. 16A is a schematic illustration of the utility of SC-β cells for treating diabetes or screening drugs to improve function or replication. FIG. 16B is a table listing diabetic drugs investigated and their general therapeutic category. FIG. 16C is a graph showing ELISA measurements of secreted human insulin from plated SC-β cells treated with the indicated drugs in 2 and 20 mM glucose. Indicated p values compare the insulin value in 20 mM glucose between the drug and the control. FIG. 16D is an immunofluorescence image of dispersed and plated SC-β cells stained with DAPI (blue), C-peptide (green), and Ki67 (red) without treatment. FIG. 16E is an immunofluorescence image of dispersed and plated SC-β cells stained with DAPI (blue), C-peptide (green), and Ki67 (red) treated with prolactin for 48 hours. […] FIG. 16G is a graph illustrating fasting blood glucose measurements of Akita mice transplanted with SC-β cells (n=6) or PH cells (n=6). *p<0.05 comparing the two cell groups on the same day. FIG. 16H is a graph illustrating blood glucose measurements from progressively diabetic Akita mice transplanted with SC-β cells or PH cells. Measurements were taken before (white bars) and 20 min after (black bars) a glucose injection of mice transplanted 2 weeks prior. Glucose measurements were saturated at 550 mg/dL. *p<0.05 comparing the two cell groups at the same time post glucose injection. FIG. 16I is a graph showing ELISA measurements of human insulin from the serum of Akita mice 20 min after a glucose injection. Mice were challenged with glucose 2 weeks post transplantation. *p<0.05 comparing the two cell groups. Scale bar=50 μm.
The inventors first tested whether SC-β cells could respond to existing anti-diabetic drugs from several different classes (FIG. 16B). LY2608204 is glucokinase activator in clinical trials while liraglutide, tolbutamide, and nateglinide are examples of GLP-1 agonists and secretagogues (sulfonylureas and meglitinides), respectively, that have been used clinically (Matschinsky, 2009; Modi, 2007; Vetere et al., 2014).

[2] = system: hPSC; assay: Modified differentiation protocol Steps 3-6: cell survival and marker expression; settings: for cell survival: Steps 3-5
Excerpt: (Watanabe, K. et al., Nature Biotechnology 25, 681-686 (2007)).
(Watanabe et al.) Examples of Rock inhibitors include, but are not limited to, Y-27632, Fasudil/HA1077, and H-1152.
In addition to treating the cells with a Rocki inhibitor, the cells in Steps 3-4 can be treated with ActivinA alone or in combination with Nicotinamide.
Staurosporine is known to be an activator of neuronal, glial, and stem cell-like neurosphere differentiation and is also thought to induce apoptosis. (Schumacher, et al., Mol. Cell. Neurosci. 2003; 23(4): 669-680).

[3] = system: SC-β cells; assay: GSIS of SC-β cells after adding additional factors to CMRL media at last differentiation step (Stage 6); settings: factor added to CMRL media containing Alk5 inhibitor and T3; versus CMRL only, CMRL+Alk5i+T3 or S3+Alk5i+T3
Excerpt: To induce the in vitro maturation of at least some of the Pdx1-positive, NKX6-1-positive, insulin-positive endocrine cells into SC-β cells, the Pdx1-positive, NKX6-1-positive, insulin-positive endocrine cells are maintained in a suitable culture medium for a sufficient period of time. […] Adding additional factors to the CMRL media at the last step of differentiation (Stage 6) (FIG. 14A), however, was also found to generate a better glucose stimulated insulin secretion (GSIS) response by SC-β cells as measured by either stimulation index between high and low glucose challenges or by the amount of insulin released. Such additional factors may include, but are not limited to, Sant1, XXI, and SSP. The stimulation index, as calculated by the ratio of insulin secreted in high glucose (15 mM) to low glucose (2.5 mM), was greater for the SC-β cells maintained in a CMRL media containing Alk5 inhibitor, T3 hormone and either Sant1, XXI or SSP than those SC-β cells maintained in only CMRL media, CMRL media containing Alk5 inhibitor and T3 hormone, or S3 media containing Alk5 inhibitor and T3 hormone (FIG. 14B). Furthermore, the amount of insulin secreted was greater for the SC-β cells maintained in a CMRL media containing Alk5 inhibitor, T3 hormone and either Sant1, XXI or SSP than those SC-β cells maintained in only CMRL media, CMRL media containing Alk5 inhibitor and T3 hormone, or S3 media containing Alk5 inhibitor and T3 hormone (FIG. 14C).
Alternatively, Days 21-35: CMRLS+10 μM Alk5i II+1 μM T3+Sant1.
Alternatively, Days 21-35: CMRLS+10 μM Alk5i II+1 μM T3+XXI.
Alternatively, Days 21-35: CMRLS+10 μM Alk5i II+1 μM T3+SSP.

[4] = system: SC-β cells; assay: β cell replication: C-peptide/Ki67 staining of SC-β cells; settings: SC-β cells cultured with prolactin (48 hours); untreated 0.20±0.08%
Excerpt: Next the inventors tested whether SC-β cells could model β cell replication. Increasing a patient's β cell mass may improve glycemic control by producing more insulin in total without needing to increase the amount of insulin produced per β cell. To date, few if any drugs that have promoted β cell replication in rodent or cell line models have been translated to human β cells. […] The inventors tested whether treatment with prolactin could increase β cell replication in a SC-β cell population. After culturing SC-β cells with prolactin, cells were stained and fixed for C-peptide and the proliferation marker Ki67 (FIGS. 16D and 16E). Like primary human β cells, the baseline number of Ki67+ proliferating SC-β cells was very low (0.20±0.08% Ki67+/C-peptide+) (FIG. 16F).
Cells were dispersed and plated onto 96 well plates. After one day of culture, cells were washed in PBS and fixed in 4% PFA for 20 min at RT. Following 3 washes with PBS, cells were blocked for 1 hour at RT in PBS+0.1% Triton X-100+5% donkey serum. […] The percentage of target cell-types was quantified using the Array Scan Cellomics high-content screening system. Here 30 images were acquired per well and quantified. Cells labeled by antibody staining and total cell number (based on DAPI nuclei staining) were quantified to obtain percentages of target cell types.

O=C(Nc1ncc(SCCN2CCCC2)s1)[C@]1(c2ccc(S(=O)(=O)C3CC3)cc2)C[C@H]1C1CCCCC1 [LY2608204]
insulin secretion in vitro following a glucose challenge [1]: increasing insulin secretion

NC(=O)c1cccnc1 [Nicotinamide]
cell survival [2]: improve cell survival

Cc1nn(-c2ccccc2)c(C)c1/C=N/N1CCN(Cc2ccccc2)CC1 [Sant1]
amount of insulin secreted [3]: greater | stimulation index, ratio of insulin secreted in high glucose (15 mM) to low glucose (2.5 mM) [3]: greater

C[C@H](NC(=O)Cc1cc(F)cc(F)c1)C(=O)N[C@H]1N=C(c2ccccc2)c2ccccc2N(C)C1=O [XXI]
NeuroD1+ population ([2]; XXI added to medium with Alk5i and T3 at Steps 5 and 6): increase | amount of insulin secreted [3]: greater | stimulation index, ratio of insulin secreted in high glucose (15 mM) to low glucose (2.5 mM) [3]: greater

CC(C)[C@H]1CC[C@H](C(=O)N[C@H](Cc2ccccc2)C(=O)O)CC1 [nateglinide]
insulin secretion in vitro following a glucose challenge [1]: increasing insulin secretion

CN[C@@H]1C[C@H]2O[C@@](C)([C@@H]1OC)n1c3ccccc3c3c4c(c5c6ccccc6n2c5c31)C(=O)NC4 [staurosporine]
percentage of ChromograninA ([2]; Steps 5-6): increasing | percentage of NKX6-1.C-peptide+ cells ([2]; Steps 5-6): increasing | amount of insulin secreted [3]: greater | stimulation index, ratio of insulin secreted in high glucose (15 mM) to low glucose (2.5 mM) [3]: greater

CCCCNC(=O)NS(=O)(=O)c1ccc(C)cc1 [tolbutamide]
insulin secretion in vitro following a glucose challenge [1]: increasing insulin secretion

B1: Activin A: growth factor from the TGF-β superfamily (protein, UniProt P08476 311-426, looked up)
Inhibin beta A chain: GLECDGKVNICCKKQFFVSFKDIGWNDWIIAPSGYHANYCEGECPSHIAGTSGSSLSFHSTVINHYRMRGHSPFANLKSCCVPTKLRPMSMLYYDDGQNIIKKDIQNMIVEECGCS
modifications: Inhibin beta A chain
notes: growth factor from the TGF-β superfamily
cell survival [2]: improve cell survival

B2: prolactin: hormone tested for increasing β cell replication (protein, UniProt P01236 29-227, looked up)
Prolactin: LPICPGGAARCQVTLRDLFDRAVVLSHYIHNLSSEMFSEFDKRYTHGRGFITKAINSCHTSSLATPEDKEQAQQMNQKDFLSLIVSILRSWNEPLYHLVTEVRGMQEAPEAILSKAVEIEEQTKRLLEGMELIVSQVHPETKENEIYPVWSGLPSLQMADEESRLSAYYNLLHCLRRDSHKIDNYLKLLKCRIIHNNNC
Ki67+/C-peptide+ cells after prolactin treatment [4]: 0.39±0.08%

Reference: patent publication US20240101963A1, “SC-BETA CELLS AND COMPOSITIONS AND METHODS FOR GENERATING THE SAME” (President and Fellows of Harvard College, priority 2013, published 2024)
